Target: T1, CXCR7 (Homo sapiens, UniProt P25106)
T1 construct: host or cells: CHO-K1 (PathHunter CHO-K1 CXCR7 b-arrestin cell line, stably transfected)
Experiment: PathHunter CHO-K1 CXCR7 b-arrestin recruitment assay (CXCR7 agonistic activity)
Format: cell-based
Settings: PathHunter CHO-K1 CXCR7 b-arrestin cell line
How it was run: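 Stable CHO-K1 line with C-terminally ProLink-tagged CXCR7 and β-arrestin 2–EA fusion; β-arrestin recruitment restores β-gal activity, read by chemiluminescence after 1 h RT detection. Cells seeded 24 h, starved in OPTIMEM 3–4 h, exposed to compounds 90 min at 37 °C in HBSS/HEPES/BSA. Geometric-mean EC50 from repeated measurements.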

T1 sequence (P25106 whole entry): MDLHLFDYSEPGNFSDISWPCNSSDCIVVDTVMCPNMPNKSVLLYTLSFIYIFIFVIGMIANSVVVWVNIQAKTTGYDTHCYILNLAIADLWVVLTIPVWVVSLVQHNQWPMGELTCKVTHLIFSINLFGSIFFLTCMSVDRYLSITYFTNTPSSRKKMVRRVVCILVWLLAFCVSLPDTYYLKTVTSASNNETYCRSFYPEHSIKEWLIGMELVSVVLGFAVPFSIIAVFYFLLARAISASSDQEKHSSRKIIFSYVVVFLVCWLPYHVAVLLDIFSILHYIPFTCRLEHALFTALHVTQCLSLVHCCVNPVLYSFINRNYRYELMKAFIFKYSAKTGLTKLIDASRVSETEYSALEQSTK
T1 sequence (P32121 whole entry partner): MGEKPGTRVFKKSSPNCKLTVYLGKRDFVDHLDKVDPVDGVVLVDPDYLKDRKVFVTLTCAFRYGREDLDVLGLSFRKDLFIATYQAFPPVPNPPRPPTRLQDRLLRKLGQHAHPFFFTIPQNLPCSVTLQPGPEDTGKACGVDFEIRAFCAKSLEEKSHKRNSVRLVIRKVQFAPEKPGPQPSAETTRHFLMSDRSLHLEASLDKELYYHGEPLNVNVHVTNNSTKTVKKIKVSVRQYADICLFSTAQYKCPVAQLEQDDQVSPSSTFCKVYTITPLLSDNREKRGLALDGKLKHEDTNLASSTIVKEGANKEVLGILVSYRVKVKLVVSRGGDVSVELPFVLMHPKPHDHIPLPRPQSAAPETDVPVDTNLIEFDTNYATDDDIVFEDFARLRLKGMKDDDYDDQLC

SMILES | EC50
CCN1CCc2cccc(NCC(=O)N(Cc3nc(C)cs3)Cc3ccccc3C(F)(F)F)c2C1 [compound 520] | 188 nM
CCN1CCc2cccc(NCC(=O)N(CCN(C)C)Cc3ccc(F)cc3C(F)(F)F)c2C1 [compound 523] | 58 nM
CCN1CCc2cccc(NCC(=O)N(CCN(C)C)Cc3c(F)cccc3F)c2C1 [compound 524, N-(2,6-Difluoro-benzyl)-N-(2-dimethylamino-ethyl)-2-(2-ethyl-1,2,3,4-tetrahydro-isoquinolin-8-ylamino)-acetamide] | 27 nM
CCN1CCc2cccc(NCC(=O)N(CCN(C)C)Cc3ncccc3C)c2C1 [compound 525, N-(2-Dimethylamino-ethyl)-2-(2-ethyl-1,2,3,4-tetrahydro-isoquinolin-8-ylamino)-N-(3-methyl-pyridin-2-ylmethyl)-acetamide] | 41 nM
CCN1CCc2cccc(NCC(=O)N(CCN(C)C)Cc3cccc(C)n3)c2C1 [compound 526, N-(2-Dimethylamino-ethyl)-2-(2-ethyl-1,2,3,4-tetrahydro-isoquinolin-8-ylamino)-N-(6-methyl-pyridin-2-ylmethyl)-acetamide] | 44 nM
CCN1CCc2cccc(NCC(=O)N(CCN(C)C)Cc3ccc(C)cn3)c2C1 [compound 527] | 162 nM
CCN1CCc2cccc(NCC(=O)N(CCN(C)C)Cc3ncccc3F)c2C1 [compound 528, N-(2-Dimethylamino-ethyl)-2-(2-ethyl-1,2,3,4-tetrahydro-isoquinolin-8-ylamino)-N-(3-fluoro-pyridin-2-ylmethyl)-acetamide] | 42 nM
CCN1CCc2cccc(NCC(=O)N(CCN(C)C)Cc3ccc(F)cn3)c2C1 [compound 529] | 174 nM
CCN1CCc2cccc(NCC(=O)N(CCN(C)C)Cc3ccc(Cl)cn3)c2C1 [compound 530] | 174 nM
CCN1CCc2cccc(NCC(=O)N(CCN(C)C)Cc3ncccc3C(F)(F)F)c2C1 [compound 531, N-(2-Dimethylamino-ethyl)-2-(2-ethyl-1,2,3,4-tetrahydro-isoquinolin-8-ylamino)-N-(3-trifluoromethyl-pyridin-2-ylmethyl)-acetamide] | 6 nM
CCN1CCc2cccc(NCC(=O)N(CCN(C)C)Cc3cccc(C(F)(F)F)n3)c2C1 [compound 532, N-(2-Dimethylamino-ethyl)-2-(2-ethyl-1,2,3,4-tetrahydro-isoquinolin-8-ylamino)-N-(6-trifluoromethyl-pyridin-2-ylmethyl)-acetamide] | 30 nM
CCN1CCc2cccc(NCC(=O)N(CCN(C)C)Cc3cncc(Cl)c3)c2C1 [compound 533] | 359 nM
CCN1CCc2cccc(NCC(=O)N(CCN(C)C)Cc3cnc(N(C)C)nc3)c2C1 [compound 534] | 395 nM
CCN1CCc2cccc(NCC(=O)N(CCN(C)C)Cc3cc(C)on3)c2C1 [compound 535] | 355 nM
CCN1CCc2cccc(NCC(=O)N(CCN(C)C)Cc3nc(C)cs3)c2C1 [compound 536] | 92 nM
CCN1CCc2cccc(NCC(=O)N(CCc3ccccc3C)CCN(C)C)c2C1 [compound 537] | 217 nM
CCN1CCc2cccc(NCC(=O)N(CCc3ccccc3C(F)(F)F)CCN(C)C)c2C1 [compound 538] | 155 nM
CCN1CCc2cccc(NCC(=O)N(CCc3cccc(C(F)(F)F)c3)CCN(C)C)c2C1 [compound 539] | 115 nM
CCN1CCc2cccc(NCC(=O)N(CCN(C)C)Cc3ccccn3)c2C1 [compound 540] | 220 nM
CCN1CCc2cccc(NCC(=O)N(CCN(C)C)Cc3nccs3)c2C1 [compound 541] | 175 nM
CCN1CCc2cccc(NCC(=O)N(CCc3ccccc3)CCN(C)C)c2C1 [compound 542] | 113 nM

SMILES | EC50
CCN1Cc2c(cccc2NCC(=O)N(CCN(C)C)Cc2ccccc2C(F)(F)F)CC1=O [compound 543] | 84 nM
CN(C)CCN(Cc1ccccc1C(F)(F)F)C(=O)CNc1cccc2c1CN(S(=O)(=O)c1ccccc1)CC2 [compound 545] | 80 nM
CCN1CCc2cccc(OC(C)C(=O)N(CCN(C)C)Cc3ccccc3C(F)(F)F)c2C1 (stereo not drawn) [compound 548] | 133 nM
CCN1CCc2cccc(OC3(C(=O)N(CCN(C)C)Cc4ccccc4C(F)(F)F)CCC3)c2C1 [compound 549] | 257 nM
CCN1CCc2cccc(/C=C/C(=O)N(CCN(C)C)Cc3ccccc3C(F)(F)F)c2C1 [compound 550, (E)-N-(2-Dimethylamino-ethyl)-3-(2-ethyl-1,2,3,4-tetrahydro-isoquinolin-8-yl)-N-(2-trifluoromethyl-benzyl)-acrylamide] | 2 nM
CN(C)CCN(Cc1ccccc1C(F)(F)F)C(=O)CNc1cccc2c1CN(C(=O)C(C)(C)C)CC2 [compound 551, N-(2-Dimethylamino-ethyl)-2-[2-(2,2-dimethyl-propionyl)-1,2,3,4-tetrahydro-isoquinolin-8-ylamino]-N-(2-trifluoromethyl-benzyl)-acetamide] | 35 nM
CN(C)CCN(Cc1ccccc1C(F)(F)F)C(=O)CNc1cccc2c1CN(C(=O)c1ccccc1)CC2 [compound 552, 2-(2-Benzoyl-1,2,3,4-tetrahydro-isoquinolin-8-ylamino)-N-(2-dimethylamino-ethyl)-N-(2-trifluoromethyl-benzyl)-acetamide] | 4 nM
CC(C)OC(=O)N1CCc2cccc(NCC(=O)N(CCN(C)C)Cc3ccccc3C(F)(F)F)c2C1 [compound 553, 8-({[(2-Dimethylamino-ethyl)-(2-trifluoromethyl-benzyl)-carbamoyl]-methyl}-amino)-3,4-dihydro-1H-isoquinoline-2-carboxylic acid isopropyl ester] | 14 nM
CN(C)CCN(Cc1ccccc1C(F)(F)F)C(=O)CNc1cccc2c1CN(CC1CCCCC1)CC2 [compound 554, 2-(2-Cyclohexylmethyl-1,2,3,4-tetrahydro-isoquinolin-8-ylamino)-N-(2-dimethylamino-ethyl)-N-(2-trifluoromethyl-benzyl)-acetamide] | 5 nM
CCN1CCc2cccc(NCC(=O)N(CCN(C)C)Cc3ccccc3C(F)(F)F)c2C1 [compound 555, N-(2-Dimethylamino-ethyl)-2-(2-ethyl-1,2,3,4-tetrahydro-isoquinolin-8-ylamino)-N-(2-trifluoromethyl-benzyl)-acetamide] | 6 nM
CCCN1CCc2cccc(NCC(=O)N(CCN(C)C)Cc3ccccc3C(F)(F)F)c2C1 [compound 556, N-(2-Dimethylamino-ethyl)-2-(2-propyl-1,2,3,4-tetrahydro-isoquinolin-8-ylamino)-N-(2-trifluoromethyl-benzyl)-acetamide] | 8 nM
CC(C)CN1CCc2cccc(NCC(=O)N(CCN(C)C)Cc3ccccc3C(F)(F)F)c2C1 [compound 557, N-(2-Dimethylamino-ethyl)-2-(2-isobutyl-1,2,3,4-tetrahydro-isoquinolin-8-ylamino)-N-(2-trifluoromethyl-benzyl)-acetamide] | 5 nM
CCC(=O)N1CCc2cccc(NCC(=O)N(CCN(C)C)Cc3ccccc3C(F)(F)F)c2C1 [compound 559, N-(2-Dimethylamino-ethyl)-2-(2-propionyl-1,2,3,4-tetrahydro-isoquinolin-8-ylamino)-N-(2-trifluoromethyl-benzyl)-acetamide] | 13 nM
CN(C)CCN(Cc1ccccc1C(F)(F)F)C(=O)CNc1cccc2c1CN(C(=O)C1CC1)CC2 [compound 560, 2-(2-Cyclopropanecarbonyl-1,2,3,4-tetrahydro-isoquinolin-8-ylamino)-N-(2-dimethylamino-ethyl)-N-(2-trifluoromethyl-benzyl)-acetamide] | 5 nM
CN(C)CCN(Cc1ccccc1C(F)(F)F)C(=O)CNc1cccc2c1CN(C(=O)N1CCCC1)CC2 [compound 561, N-(2-Dimethylamino-ethyl)-2-[2-(pyrrolidine-1-carbonyl)-1,2,3,4-tetrahydro-isoquinolin-8-ylamino]-N-(2-trifluoromethyl-benzyl)-acetamide] | 7 nM
CN(C)CCN(Cc1ccccc1C(F)(F)F)C(=O)CNc1cccc2c1CN(C(N)=O)CC2 [compound 562] | 100 nM
CN(C)CCN(Cc1ccccc1C(F)(F)F)C(=O)CNc1cccc2c1CN(CC(C)(C)C)CC2 [compound 563, N-(2-Dimethylamino-ethyl)-2-[2-(2,2-dimethyl-propyl)-1,2,3,4-tetrahydro-isoquinolin-8-ylamino]-N-(2-trifluoromethyl-benzyl)-acetamide] | 26 nM
CN(C)CCN(Cc1ccccc1C(F)(F)F)C(=O)CNc1cccc2c1CN(C)CC2 [compound 564, N-(2-Dimethylamino-ethyl)-2-(2-methyl-1,2,3,4-tetrahydro-isoquinolin-8-ylamino)-N-(2-trifluoromethyl-benzyl)-acetamide] | 17 nM
O=C(CNc1cccc2c1CN(CC1CC1)CC2)N(CCN1CCCC1)Cc1ccccc1C(F)(F)F [compound 565, 2-(2-Cyclopropylmethyl-1,2,3,4-tetrahydro-isoquinolin-8-ylamino)-N-(2-pyrrolidin-1-yl-ethyl)-N-(2-trifluoromethyl-benzyl)-acetamide] | 4 nM
CN(C)CCN(Cc1ncccc1C(F)(F)F)C(=O)CNc1cccc2c1CN(CC1CC1)CC2 [compound 566, 2-(2-Cyclopropylmethyl-1,2,3,4-tetrahydro-isoquinolin-8-ylamino)-N-(2-dimethylamino-ethyl)-N-(3-trifluoromethyl-pyridin-2-ylmethyl)-acetamide] | 3 nM
CCN1CCc2cccc(OCC(=O)N(CCN(C)C)Cc3ccccc3C(F)(F)F)c2C1 [compound 567, N-(2-Dimethylamino-ethyl)-2-(2-ethyl-1,2,3,4-tetrahydro-isoquinolin-8-yloxy)-N-(2-trifluoromethyl-benzyl)-acetamide] | 4 nM
